Entries after “also recorded” stand apart in the source; their conditions may differ.
Legend:
[1] = tested on: rat model of ALS; settings: downregulation of aberrant glial cells and reactive microglia; cited from earlier work
[2] = tested on: SOD1G93A mutant rat model of ALS; assay: Immunohistochemical staining of spinal cords after post-paralysis isoquercetin treatment (Example 1); assay type: in vivo; settings: SOD1G93A rats, versus vehicle
Method: Materials and Methods: Animals: Male SOD1G93A progeny were used for further breeding to maintain the line. Rats were housed in a centralized animal facility with a 12-h light-dark cycle with ad libitum access to food and water. Perfusion with fixatives was performed under 90% ketamine-10% xylazine anesthesia and all efforts were made to minimize animal suffering, discomfort, or stress. All procedures using laboratory animals were performed in accordance with the national and international guidelines and were approved by the Institutional Animal Committee for animal experimentation. Male hemizygous NTac:SD-TgN (SOD1-G93A)L26H rats (Taconic), originally developed by Howland et al. (2002), were bred locally by crossing with wild-type nontransgenic Sprague-Dawley female rats.
Treatment with Isoquercetin: All rats were weighed and evaluated for motor activity daily.
Fixed spinal cords were removed, postfixed by immersion for 24 h, and then transverse sectioned ([…]) in a Leica cryostat. Serial sections were collected in 100 mM PBS for immunohistochemistry.

| Structure (SMILES) | paralysis progression [1] | number of ventral horn motor neurons expressing misfolded SOD1 and Ubiquitin ([2]; 15 days after paralysis onset) | microgliosis: number of Iba1+ cells in the ventral horn of the lumbar spinal cord ([2]; oral 30 mg/kg/day for 15 days starting after paralysis onset, 30 mg/kg/day) | number of hypertrophic (reactive, GFAP-positive) astrocytes surrounding motor neurons in the lumbar spinal cord ([2]; oral 30 mg/kg/day for 15 days starting after paralysis onset, given together with vitamin C and niacin, 30 mg/kg/day) |
| --- | --- | --- | --- | --- |
| Cc1ccc(NC(=O)c2ccc(CN3CCN(C)CC3)cc2)cc1Nc1nc(-c2cccnc2)cs1 [masitinib] | slowed paralysis progression |  |  |  |
| O=c1c(O[C@@H]2O[C@H](CO)[C@@H](O)[C@H](O)[C@H]2O)c(-c2ccc(O)c(O)c2)oc2cc(O)cc(O)c12 [isoquercetin, quercetin-3-O-β-d-glucopyranoside] |  | apparently reduced; also recorded: significant reduction | significantly reduced; also recorded: Significant reduction | significantly reduced; also recorded: significant reduction |
